These results are taken from publication PMC5640644, “HDX reveals the conformational dynamics of DNA sequence specific VDR co-activator interactions” (Nature Communications, 2017).

One test relates to BGLAP. Put plainly: BGLAP gene activation assay (BGLAP mRNA, QuantiGene 2.0) in MG-63 cells. The format is cell-based, human. On the procedure: Human osteosarcoma cells MG-63, (CRL-1427, American Type Culture Collection (ATCC), Manassas, VA), were maintained in EMEM (ATCC 30–2003) + 10% FBS in 5% CO2. For bone gamma-carboxyglutamate protein (BGLAP) expression analysis MG-63 cells, suspended in EMEM (ATCC 30–2003) + 5% charcoal dextran treated FBS, were seeded onto 96-well tissue culture treated plates at 25,000 cells per well. After an overnight incubation the medium was removed and serial dilutions of VDRMs in concentrations ranging from 10 μM to 2 nM in EMEM (ATCC 30–2003) + 5% charcoal dextran treated FBS were added. Following a 24 h incubation the medium was removed and the plates were sealed and stored at −80 °C for later processing. QuantiGene 2.0 Assay Kit (Affymetrix QS0009) was used to quantitate BGLAP and the Housekeeping gene […] mRNA levels. Following the kit instructions, lysis buffer was added to the frozen cells and incubated briefly at 55 °C. A volume of 20 μl of BGLAP probeset (Affymetrix SA-10875-01) or 18 S (Affymetrix SA-10026) in blocking buffer was added to the provided capture plates before adding 80 μl of the cell lysate. The plates were sealed and incubated at 55 °C overnight. Following an overnight incubation the capture plates were washed and the probes amplified following kit instructions. The resulting luminescence signal was detected on an Envision (Perkin Elmer). BGLAP signal was normalized using the 18S signal and the resulting data was fit to a 4-parameter logistics to determine EC50.

The subject of the next test is TRPV6. The test can be described thus: TRPV6 gene activation assay (TRPV6 mRNA, QuantiGene 2.0) in differentiated C2BBe1 cells. The format is cell-based, human. The procedure:
C2BBe1 (a clone of CaCO2) cells (CRL-2101, American Type Culture Collection, Manassas, VA) were maintained in DMEM (ATCC 30-2002) supplemented with 10% FBS and insulin-transferrin-selenium-G supplement (Invitrogen, Carlsbad, CA). For TRPV6 expression analysis, cells were plated in 96-well tissue culture treated plates (40,000 per well) in differentiation medium (DMEM containing 5% charcoal-stripped FBS and insulin-transferrin-sodium selenite supplement (ITS)). Cells were allowed to differentiate for 6 days with medium replacement every other day before compound treatment. The medium was removed, and serial dilutions of 1,25D3 or VDRMs in concentrations ranging from 10 μM to 2 nM in differentiation medium were added. After 24 h, the medium was removed, and cell plates were sealed and frozen at −80 °C until assayed. QuantiGene 2.0 Assay Kit (Affymetrix QS0009) was used to quantitate TRPV6 and housekeeping gene GUSB mRNA levels. Following the kit instructions, lysis buffer was added to the frozen cells and incubated briefly at 55 °C […]. Following an overnight incubation the capture plates were washed and the probes amplified following kit instructions. The resulting luminescence signal was detected on an Envision plate reader (Perkin Elmer). TRPV6 signal was normalized using the GUSB signal and the resulting data was fit to a 4-parameter logistic to determine EC50 values.

A further test addresses T1, WT Flag-h RXRα (human, UniProt P19793 1-462).
T1 construct: human retinoid X receptor alpha (RXRα), full length; also called retinoid X receptor α; source: baculovirus system, purified (Flag, SEC)
T1 sequence (looked up): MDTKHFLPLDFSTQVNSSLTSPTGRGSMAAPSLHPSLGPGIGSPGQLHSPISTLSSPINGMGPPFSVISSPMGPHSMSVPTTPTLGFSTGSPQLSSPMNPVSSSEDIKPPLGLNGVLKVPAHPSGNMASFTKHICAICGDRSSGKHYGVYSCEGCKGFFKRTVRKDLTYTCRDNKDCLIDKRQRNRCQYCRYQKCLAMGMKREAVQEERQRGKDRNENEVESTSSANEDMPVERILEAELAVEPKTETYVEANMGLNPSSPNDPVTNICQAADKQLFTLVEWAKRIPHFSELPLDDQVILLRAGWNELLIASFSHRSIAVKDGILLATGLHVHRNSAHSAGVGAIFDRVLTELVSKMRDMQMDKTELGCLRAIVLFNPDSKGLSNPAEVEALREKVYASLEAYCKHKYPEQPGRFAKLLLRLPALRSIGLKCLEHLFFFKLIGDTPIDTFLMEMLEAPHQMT
The test can be described thus: native gel or EMSA; VDR and RXRα mixed at 1:1 molar ratio (about 10 μM); 6% DNA Retardation gel, 0.5X TBE, 150 V, room temperature; ethidium bromide and coomassie staining. As to conditions: both partners purified. In general terms: Mobility shift assays separate free from complexed probe on a gel.

One may read the EC50 as the concentration at which the effect is half-maximal. Take `C=C1/C(=C\C=C2/CCC[C@]3(C)[C@@H]([C@H](C)CCCC(C)(C)O)CC[C@@H]23)C[C@@H](O)C[C@@H]1O` [1,25D3, 1α,25-dihydroxyvitamin D3, reference compound]: the 50% effective concentration (EC50) with BGLAP (Homo sapiens, MG-63, 24 h, read-out: EC50, BGLAP activation) was found to be 4.1 nM; in the test on TRPV6 (Homo sapiens, C2BBe1 cells differentiated 6 days, 24 h, average of replicate runs) it was 9.81 nM. The “Max. Stim., BGLAP activation” value with BGLAP (MG-63 cells, fold change over DMSO normalized to 1,25D3 = 100%) is on record as 100%. The “Max. Stim., TRPV6 activation” value with TRPV6 (C2BBe1 cells, fold change over DMSO normalized to 1,25D3 = 100%) was 100%.

B1: Full-length WT His-hVDR (Δ (151–190)) (receptor, human, UniProt P11473 1-427, looked up)
chain: MEAMAASTSLPDPGDFDRNVPRICGVCGDRATGFHFNAMTCEGCKGFFRRSMKRKALFTCPFNGDCRITKDNRRHCQACRLKRCVDIGMMKEFILTDEEVQRKREMILKRKEEEALKDSLRPKLSEEQQRIIAILLDAHHKTYDPTYSDFITSSDMMDSSSFSNLDLSEEDSDDPSVTLELSQLSMLPHLADLVSYSIQKVIGFAKMIPGFRDLTSEDQIVLLKSSAIEVIMLRSNESFTMDDMSWTCGNQDYKYRVSDVTKAGHSLELIEPLIKFQVGLKKLNLHEEEHVLLMAICIVSPDRPGVQDAALIEAIQDRLSNTLQTYIRCRHPPPGSHLLYAKMIQKLADLRSLNEEHSKQYRCLSFQPECSMKLTPLVLEVFGNEIS
notes: human vitamin D receptor (VDR), full length with residues 151-190 deleted; also called vitamin D receptor; source: baculovirus system, purified (Ni-NTA, SEC)
Consider B1, for which the binding result with WT Flag-h RXRα is “binds”.
